Laboratory results reported in patent US12201634B2, “Methods of treating depression using orexin-2 receptor antagonists” (Janssen Pharmaceutica NV, priority 2016, dated 2025).

How the values were obtained:
Assay type in all cases: in vivo, human
[1] = tested on: subjects with a diagnosis of MDD; assay: Polysomnography (TST, LPS) in MDD study (Example 2)
Excerpt: (§1) Men and women with a diagnosis of MDD between the ages of 18 and 64, inclusive, were enrolled.
(§2) (once daily) in the evening over 10 days for women of child bearing potential (WOCBP) or 4 weeks for males and women of non-child bearing potential (WONCBP). […] Males and WONCBP took 1 capsule every evening just before bedtime from Day 1 to Day 28. WOCBP took 1 capsule every evening just before bedtime from Day 1 to Day 10. There were 2 follow up visits occurring at 3 and 14 days.
(§3) For the evaluation of symptoms of depression, assessments were done at screening and during the study. Specifically, symptoms of depression were performed using the Mini International Neuropsychiatric Interview (MINI) 6.0 interview, or Hamilton rating scale for Depression-17 (HDRS17). Also, polysomnography (PSG) was performed to quantify sleep stages including latency to persistent sleep (LSP) and total sleep time (TST). Thereafter, symptoms of depression were taking on days 11 and 29 during treatment and days 3 and 14 following treatment. PSG was recorded overnight after the first and tenth dose administration of study medication.
The effects of study medication on polysomnography (PSG)-derived parameters was evaluated overnight on Days 1/2 and 10/11. In addition, PSG was recorded up to and following a forced wake overnight on Day 5/6. Two screening PSG recordings were made and baseline values were calculated as the average values recorded at Screening 1 and 2.
TST is defined as total minutes spent in rapid eye movement (REM) and non-REM sleep.
LPS is defined as the elapsed time (in minutes) from lights out to 10 minutes of continuous sleep.

[2] = tested on: subjects diagnosed with MDD; assay: HDRS17 / HAM-D6 ratings, Group 2 adjunctive to antidepressant (Example 3)
Protocol: (§4) Specifically, Compound A was administered to subjects diagnosed with MDD (i) as a monotherapy and (ii) in combination with a known anti-depressant and the symptoms of depression of the subjects evaluated using the HDRS17 and HAM-D6 scale
(§5) Each subject in Group 2 also took an amount of antidepressant selected from duloxetine, citalopram, paroxetine, or sertraline and as prescribed by their attending physician. For the evaluation of symptoms of depression for both groups, assessments were independently performed at screening and on Day 11, i.e., one day after the study, using HDRS17 and HAM-D6 as described in Example 2. In Tables 11-12, # denotes the Cohen effect size, * denotes P<0.05 (statistically significant), and ** denotes P<0.01.

[3] = Posology: plasma pharmacokinetics after oral 20 mg and repeated nighttime administration (Example 2)
Protocol: Blood and saliva were collected for the assessment of biomarkers, among others. Venous blood samples (3 mL each) were collected in fasting condition between 8:00 and 10:00 am for the determination of [5(4,6-dimethyl-pyrimidin-2-yl)-hexahydro-pyrrolo[3,4-c]pyrrol-2-yl]-(2-fluoro-2-[1,2,3]triazol-2-yl-phenyl)-methanone plasma concentrations and biomarkers related to immune system activity, Hypothalamus pituitary adrenal (HPA) axis activation, neurotropic factors and metabolic factors were measured. Pharmacokinetic (PK) blood samples also were collected. Plasma samples were analyzed to determine concentrations of Compound A using LC-MS/MS. Saliva was collected for the measurement of concentrations of cortisol. Saliva concentrations of cortisol were added as a biomarker.
as §2
The magnitude of the effect of Compound A on LPS and TST is directly related to level of insomnia at baseline. See, FIGS. 12-15.

healthy subjects = assay: Daytime administration in healthy subjects (statement)
[4] = tested on: subjects with insomnia disorder (ID); assay: Nighttime administration in subjects with insomnia disorder (statement)
[5] = tested on: subjects with a diagnosis of MDD; assay: HDRS17 / HAM-D6 depression ratings, diphenhydramine and placebo-controlled study (Example 2)
Excerpt: as §1, §2, §3
A HDRS17 total score was calculated by summing the 17 item scores taken during the study. A HDRS17 total score ranges from 0 to 52, with higher scores indicating greater severity of depression. In order to correct for a possible effect of study medication on sleep, sleep-related items were removed from the HDRS17 to calculate a (sleep item)-adjusted HDRS. Accordingly, an adjusted HDRS17 total score was calculated by summing the item scores excluding the 3 insomnia questions (4-Insomnia Early, 5-Insomnia Middle and 6-Insomnia Late). A HDRS17 adjusted total score ranges from 0 to 46. A 6-item subscale from the HDRS17 (HAM-D6) was analyzed and provided information to core depressive symptoms and is sensitive to treatment response. The six items included depressed mood, guilt feelings, work and interests, psychomotor retardation, psychic anxiety, and general somatics (tiredness and pains).
The HAM-D6 score was calculated by summing the 6 items scores, and ranges from 0 to 22. Higher scores indicate greater severity of core symptoms.

[6] = tested on: subjects diagnosed with MDD; assay: HDRS17 / HAM-D6 ratings, Group 1 monotherapy (Example 3)
Protocol: as §4, §5

[7] = Group 2 (with antidepressant), Day 11

Question: Which results are given for “[5(4,6-dimethyl-pyrimidin-2-yl)-hexahydro-pyrrolo[3,4-c]pyrrol-2-yl]-(2-fluoro-2-[1,2,3]triazol-2-yl-phenyl)-methanone [Compound A]”?
Answer: Latency to Persistent Sleep (LPS), change from baseline ([1]; Day 1/2): 8.7 min; Total Sleep Time (TST), change from baseline ([1]; Day 1/2): 30.9 min; Latency to Persistent Sleep (LPS), change from baseline ([1]; Day 10/11): 9.2 min; Total Sleep Time (TST), change from baseline ([1]; Day 10/11): 26.56 min; LPS compared to placebo ([1]; overnight on Day 1/2): modestly reduced LPS; TST compared to placebo ([1]; overnight on Day 1/2): increased TST; Adjusted HDRS Effect Size Compound A vs Placebo (Cohen effect size) [2, 7]: −1.06; Adjusted HDRS mean score (SD), change from baseline [2, 7]: −5.5 (1.29); Anxiety-Somatization Factor Effect Size Compound A vs Placebo (Cohen effect size) [2, 7]: −0.76; Anxiety-Somatization Factor mean score (SD), change from baseline [2, 7]: −1.8 (0.50); HAM-D6 Effect Size Compound A vs Placebo (Cohen effect size) [2, 7]: −1.49; HAM-D6 mean score (SD), change from baseline [2, 7]: −4.8 (1.50); HDRS17 Effect Size Compound A vs Placebo (Cohen effect size) [2, 7]: −0.37; HDRS17 mean score (SD), change from baseline [2, 7]: −7.0 (3.37); antidepressant efficacy as adjunctive therapy ([2]; antidepressant drug-treated subjects with MDD): has antidepressant efficacy; accumulation on repeated daily dosing ([3]; nighttime administration, 10 days daily): did not result in accumulation; half-life ([3]; oral 20 mg): 2 to 3 h; time to maximal plasma concentrations (Tmax) ([3]; oral 20 mg): < 1 h; somnolence (healthy subjects): induced somnolence; latency to persistent sleep (LPS) [4]: reduced; total sleep time (TST) [4]: prolongs; antidepressant effect compared to placebo and diphenhydramine ([5]; 20 mg q.d. in the evening): larger and clinically relevant; Mean HAM-D6, change from baseline ([5]; Day 11): −3.8; mean HDRS17 anxiety/somatization factor score, change from baseline ([5]; Day 11): −1.6; Mean Adjusted HDRS17 (sleep items removed), change from baseline ([5]; Day 11, q.d. in the evening): −4.5; Total HDRS17 mean score, change from baseline ([5]; Day 11, q.d. in the evening): −5.5; antidepressant effect sustained after treatment discontinuation ([5]; after treatment discontinuation): at least 14 days; Adjusted HDRS Effect Size Compound A vs Placebo (Cohen effect size) ([6]; Group 1, Day 11): −0.93; Adjusted HDRS mean score (SD), change from baseline ([6]; Group 1, Day 11): −4.3 (2.97)*; Anxiety-Somatization Factor Effect Size Compound A vs Placebo (Cohen effect size) ([6]; Group 1, Day 11): −0.51; Anxiety-Somatization Factor mean score (SD), change from baseline ([6]; Group 1, Day 11): −1.6 (1.65); HAM-D6 Effect Size Compound A vs Placebo (Cohen effect size) ([6]; Group 1, Day 11): −1.22; HAM-D6 mean score (SD), change from baseline ([6]; Group 1, Day 11): −3.6 (2.33)**; HDRS17 Effect Size Compound A vs Placebo (Cohen effect size) ([6]; Group 1, Day 11): −0.64; HDRS17 mean score (SD), change from baseline ([6]; Group 1, Day 11): −5.1 (3.97); antidepressant efficacy as monotherapy ([6]; untreated subjects with MDD): has antidepressant efficacy
